Data on three compounds can be found in PMC11305387, “AlphaFold accelerated discovery of psychotropic agonists targeting the trace amine–associated receptor 1” (Science Advances, 2024).

Molecules are shown by their SMILES. pEC50: −log10 of the molar value.

For one test, the target named is T1, M2 receptor (Homo sapiens, UniProt P08172).
T1 construct: TANGO fusion module (own knowledge, Kroeze et al.: C-terminal V2 tail, TEV site and tTA); 1000000068; host or cells: HTLA (HEK293-derived)
T1 sequence (P08172 1-466): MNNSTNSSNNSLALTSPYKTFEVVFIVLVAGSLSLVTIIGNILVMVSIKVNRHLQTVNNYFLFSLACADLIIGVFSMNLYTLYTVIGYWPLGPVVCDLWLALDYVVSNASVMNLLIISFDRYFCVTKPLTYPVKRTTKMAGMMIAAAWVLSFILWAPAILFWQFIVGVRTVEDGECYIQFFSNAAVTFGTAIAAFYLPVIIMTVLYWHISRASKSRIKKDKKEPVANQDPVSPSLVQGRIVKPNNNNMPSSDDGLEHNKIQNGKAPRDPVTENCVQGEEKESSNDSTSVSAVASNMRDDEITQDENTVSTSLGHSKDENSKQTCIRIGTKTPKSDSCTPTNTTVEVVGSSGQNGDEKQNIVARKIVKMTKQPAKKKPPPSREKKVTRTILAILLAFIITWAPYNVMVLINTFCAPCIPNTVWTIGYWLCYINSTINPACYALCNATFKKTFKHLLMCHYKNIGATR
Description: PRESTO-TANGO β-arrestin recruitment. The class given is cell-based.

A further test has as its target T2, hTAAR1 (Homo sapiens, UniProt Q96RJ0).
T2 construct: expressed in transfected cells; host or cells: Expi293F
T2 sequence (Q96RJ0 1-339): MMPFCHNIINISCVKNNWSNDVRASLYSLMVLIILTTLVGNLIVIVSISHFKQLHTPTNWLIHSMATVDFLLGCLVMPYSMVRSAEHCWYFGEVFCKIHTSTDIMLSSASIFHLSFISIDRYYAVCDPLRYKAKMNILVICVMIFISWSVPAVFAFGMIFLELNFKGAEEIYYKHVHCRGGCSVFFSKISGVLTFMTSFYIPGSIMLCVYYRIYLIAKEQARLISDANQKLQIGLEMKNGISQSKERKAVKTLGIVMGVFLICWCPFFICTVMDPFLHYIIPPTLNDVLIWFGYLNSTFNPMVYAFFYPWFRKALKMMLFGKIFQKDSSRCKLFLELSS
The test can be described thus: G protein (mini-Gs) recruitment luminescence complementation assay, agonist mode. It is filed as cell-based. Here is the method:
The 62 predicted ligands were purchased from commercial vendors and tested for activity at a concentration of 20 μM in a luminescence complementation–based assay measuring recruitment of mini-Gs to the human TAAR1 ([38]).
To monitor TAAR1 activation by compounds, we used our previously described system. […] Cells were then reseeded in solid white, 96-well plates (Corning) with 90 μl of cell suspension per well. Luminescence was read using a plate reader for 5 min (SPARK 10 M, Tecan) before the addition of compounds to ensure signal stability. Ten microliters of each compound diluted in DPBS was added, and luminescence from each well was read for 10 min, with 100-ms read time per well. The A2AR counter-screen was performed using the same protocol. In these experiments, the hTAAR1 was replaced by a C-terminally SmBiT-tagged hA2AR construct.

In another test the target is T3, α2A receptor (Homo sapiens, UniProt P08913).
T3 construct: TANGO fusion module (own knowledge, Kroeze et al.: C-terminal V2 tail, TEV site and tTA); 1000000068; host or cells: HTLA (HEK293-derived)
T3 sequence (P08913 1-465): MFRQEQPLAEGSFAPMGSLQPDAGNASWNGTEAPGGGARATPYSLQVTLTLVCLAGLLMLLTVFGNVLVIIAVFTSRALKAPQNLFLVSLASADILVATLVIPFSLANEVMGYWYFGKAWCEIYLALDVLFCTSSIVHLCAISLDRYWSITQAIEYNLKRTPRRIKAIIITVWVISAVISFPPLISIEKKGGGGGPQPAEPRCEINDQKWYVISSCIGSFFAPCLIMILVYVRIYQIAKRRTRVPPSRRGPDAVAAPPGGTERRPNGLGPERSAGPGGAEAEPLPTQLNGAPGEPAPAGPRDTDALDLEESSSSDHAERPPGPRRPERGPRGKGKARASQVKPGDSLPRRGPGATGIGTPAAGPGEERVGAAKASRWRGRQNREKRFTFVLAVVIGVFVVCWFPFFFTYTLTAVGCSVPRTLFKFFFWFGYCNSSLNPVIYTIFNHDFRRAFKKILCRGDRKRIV
The test can be described thus: PRESTO-TANGO β-arrestin recruitment. The conditions noted are these: panel screen. It is filed as cell-based. For orientation: Activated receptors often draw arrestin, which recruitment assays turn into a signal.

The next test concerns the target T4, H1 receptor (Homo sapiens, UniProt P35367).
T4 construct: TANGO fusion module (own knowledge, Kroeze et al.: C-terminal V2 tail, TEV site and tTA); 1000000068; host or cells: HTLA (HEK293-derived)
Description: PRESTO-TANGO β-arrestin recruitment. The class given is cell-based. The conditions noted are these: panel screen, 10 μM; read-out: agonist activity, % of control.

The target in a further test is T5, 5-HT1A receptor (Homo sapiens, UniProt P08908).
T5 construct: TANGO fusion module (own knowledge, Kroeze et al.: C-terminal V2 tail, TEV site and tTA); 1000000068; host or cells: HTLA (HEK293-derived)
T5 sequence (P08908 1-422): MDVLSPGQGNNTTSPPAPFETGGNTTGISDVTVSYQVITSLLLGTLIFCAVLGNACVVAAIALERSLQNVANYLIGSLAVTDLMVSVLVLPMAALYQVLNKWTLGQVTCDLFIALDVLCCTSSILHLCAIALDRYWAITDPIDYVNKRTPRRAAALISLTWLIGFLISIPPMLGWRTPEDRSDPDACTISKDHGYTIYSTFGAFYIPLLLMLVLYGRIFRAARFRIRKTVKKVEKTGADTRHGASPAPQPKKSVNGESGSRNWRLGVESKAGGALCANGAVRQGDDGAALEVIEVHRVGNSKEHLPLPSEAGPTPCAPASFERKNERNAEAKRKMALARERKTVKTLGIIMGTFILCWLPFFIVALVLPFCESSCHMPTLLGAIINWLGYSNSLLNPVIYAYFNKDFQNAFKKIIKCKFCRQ
Description: PRESTO-TANGO β-arrestin recruitment. The class given is cell-based. The conditions noted are these: panel screen.

A further test has as its target T6, 5-HT1D receptor (Homo sapiens, UniProt P28221).
T6 construct: TANGO fusion module (own knowledge, Kroeze et al.: C-terminal V2 tail, TEV site and tTA); 1000000068; host or cells: HTLA (HEK293-derived)
The test can be described thus: PRESTO-TANGO β-arrestin recruitment. It is filed as cell-based. Here is the method: (§1) Assessment of receptor activation by compounds at all human aminergic receptors were carried out using a modified version of the PRESTO-TANGO method. […] The plate was spun down, and 5 μl of a 1:25 dilution (in DPBS) of polyethylenimine (PEI) derivative (Transporter 5, Polysciences) was added (1:4 cDNA to PEI ratio) and incubated for 20 min at room temperature (RT). […] Luminescence signal was detected using a plate-reader (SPARK, Tecan) with 100-ms integration time and a 100-ms delay between well reads.

The target of a further test is T7, D2 receptor (Homo sapiens, UniProt P14416).
T7 construct: TANGO fusion module (own knowledge, Kroeze et al.: C-terminal V2 tail, TEV site and tTA); 1000000068; host or cells: HTLA (HEK293-derived)
Description: cell-based. The class given is cell-based. Here is the method:
as §1

For another test, the system named is TAAR1. As to conditions: ref Zilberg et al. ([51]); cited from earlier work.
Test [1] concerns WT and TAAR1-KO mice. Description: Pre-pulse inhibition (PPI) behavioral assay. It is filed as in vivo. The conditions noted are these: compound 65 1 mg/kg, risperidone 0.2 mg/kg i.p. As for the experimental part:
Measurements were performed using startle response chambers (San Diego Instruments, San Diego, CA, USA). Each chamber is sound-isolated and contains a Plexiglass animal enclosure attached to a platform and a loudspeaker that can produce both continuous white noise and acoustic pulses of varying intensities. The animal enclosure is large enough for the animal to turn around and make other movements to reduce restraint stress. Mouse startle responses to acoustic stimuli are transformed by a piezoelectric transducer under the platform into an analog signal. The transducers were calibrated before each experiment using a standardization unit (San Diego Instruments, San Diego, CA, USA), and the speakers were calibrated using a Type 2670 Microphone Preamplifier, a Type 4230 Sound Level Calibrator, and a Type 2610 Measuring Amplifier (Brüel & Kjær, Nærum, Denmark). To habituate the mice to the chambers, they were placed in the enclosure for 5 min, with 65-dB background white noise, on three different days before the start of experiments. PPI measurements were then conducted on each mouse on four occasions separated by 96 hours. The first occasion was a mock test session where all mice were injected with vehicle, serving to reduce the effect of novelty on subsequent sessions. The next three sessions were true test sessions with injection of either compound 65, risperidone, or vehicle. The R package agricolae was used to generate a randomized block design, randomizing treatment order across sex, genotype, and test session.
Animals were brought to the testing room for habituation 60 min before the starting of tests. Thirty minutes before PPI measurements, mice were injected with either compound 65 (1 mg/kg), risperidone (0.2 mg/kg), or vehicle intraperitoneally. Each test session started with a 5-min background noise (65-dB white noise) habituation period. The background noise continued throughout the test session. The habituation period was followed by four blocks of trials, with the first and last blocks consisting of five pulse-only trials (40-ms, 120-dB pulse). During block 2, five trial types were presented five times each in a pseudo-randomized order. The trial types included pulse only, no stimulus (NOSTIM), and three different pre-pulse trials in which 20 ms pre-pulses of different intensities (68, 71, or 77 dB) preceded the startle pulse (120 dB) by a 100-ms interval. Block 3 contained the same numbers and types of trials as block 2, but in a different pseudorandom order. […] PPI data are shown as PPI%, which was calculated as [1 − (pre-pulse trials/startle-only trials)] × 100. Mean PPI was calculated by adding the average PPI% for all pre-pulse intensities (3, 6, and 12 dB) and dividing it by the number (i.e., 3) of pre-pulse intensities.

The subject of test [2] is WT and TAAR1-KO mice. The test can be described thus: Open-field test: baseline locomotion and MK-801-induced hyperlocomotion. It is filed as in vivo. As to conditions: compound 65 1 mg/kg, risperidone 0.03 mg/kg. As for the experimental part:
To assess the influence of the compound on baseline locomotion and MK-801–induced hyperlocomotion, mice were subjected to open-field testing on four occasions separated by 96 hours. The first occasion was a mock test session where all mice were injected with vehicle only, serving to reduce the effect of novelty on subsequent sessions. The next three sessions were true test sessions with pretreatment of either compound 65, risperidone, or vehicle, followed by MK-801. The R package agricolae was used to generate a randomized block design, randomizing treatment order across sex, genotype, and test session. After injection with either compound 65 (1 mg/kg), risperidone (0.03 mg/kg), or vehicle intraperitoneally, mice were immediately placed in the open field and recorded for 15 min. They were then injected with MK-801 (0.35 mg/kg intraperitoneal) and recorded again for 60 min. The OFT arena measured 46 cm by 46 cm with gray floor and walls. The brightness at the center of each arena was 30 to 50 lux. The arenas were cleaned with 70% ethanol between each animal. Video from a camera mounted in the ceiling was analyzed using EthoVision XT11.5 (Noldus) software.

T7 sequence (P14416 whole entry, the tested form may be a part): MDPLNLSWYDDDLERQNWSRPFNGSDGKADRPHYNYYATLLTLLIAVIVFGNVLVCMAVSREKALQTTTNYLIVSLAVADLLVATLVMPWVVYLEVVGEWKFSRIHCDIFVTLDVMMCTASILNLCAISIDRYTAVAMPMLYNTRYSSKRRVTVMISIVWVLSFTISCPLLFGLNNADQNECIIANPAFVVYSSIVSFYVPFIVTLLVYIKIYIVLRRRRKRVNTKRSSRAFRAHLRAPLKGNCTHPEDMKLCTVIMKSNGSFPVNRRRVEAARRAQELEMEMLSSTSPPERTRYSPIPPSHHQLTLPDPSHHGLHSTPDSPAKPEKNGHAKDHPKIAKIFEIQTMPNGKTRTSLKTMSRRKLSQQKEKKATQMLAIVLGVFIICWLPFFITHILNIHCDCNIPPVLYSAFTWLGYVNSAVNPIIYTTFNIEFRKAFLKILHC
T6 sequence (P28221 whole entry, the tested form may be a part): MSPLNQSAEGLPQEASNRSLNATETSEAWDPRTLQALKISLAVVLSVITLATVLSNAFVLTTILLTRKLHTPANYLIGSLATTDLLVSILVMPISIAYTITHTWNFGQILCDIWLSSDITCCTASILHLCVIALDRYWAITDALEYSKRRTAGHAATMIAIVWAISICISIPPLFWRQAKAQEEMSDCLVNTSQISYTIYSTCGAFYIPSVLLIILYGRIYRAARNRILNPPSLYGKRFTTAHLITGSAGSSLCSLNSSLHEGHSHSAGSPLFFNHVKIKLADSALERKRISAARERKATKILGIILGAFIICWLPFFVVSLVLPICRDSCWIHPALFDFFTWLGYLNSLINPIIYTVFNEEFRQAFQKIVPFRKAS
T4 sequence (P35367 whole entry, the tested form may be a part): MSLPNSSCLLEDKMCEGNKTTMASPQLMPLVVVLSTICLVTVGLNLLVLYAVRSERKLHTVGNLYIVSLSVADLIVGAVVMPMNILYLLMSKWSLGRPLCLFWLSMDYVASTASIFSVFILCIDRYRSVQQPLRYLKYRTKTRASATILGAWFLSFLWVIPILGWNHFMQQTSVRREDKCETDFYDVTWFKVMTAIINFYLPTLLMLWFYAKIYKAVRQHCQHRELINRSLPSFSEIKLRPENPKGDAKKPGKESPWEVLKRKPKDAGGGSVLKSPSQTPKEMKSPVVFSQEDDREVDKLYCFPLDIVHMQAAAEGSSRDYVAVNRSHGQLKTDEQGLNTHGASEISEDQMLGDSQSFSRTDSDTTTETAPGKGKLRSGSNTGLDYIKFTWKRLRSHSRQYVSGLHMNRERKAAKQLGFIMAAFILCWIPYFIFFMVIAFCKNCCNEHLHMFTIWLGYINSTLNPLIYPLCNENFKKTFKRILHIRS

With `C1=C(c2ccco2)CNCC1` [Compound 30], the values for the pEC50 on M2 receptor (concentration-response curves), at 5-HT1D receptor and at D2 receptor (concentration-response curves) were 5.00, below 6.00 and below 6.00, respectively. Further, the maximal response (Emax) (as a rule, the size of the effect at its maximum, as opposed to the concentration needed) at M2 receptor (concentration-response curves) is 125%; at hTAAR1 (relative to the effect of the reference agonist β-PEA, read-out: Emax) it was 112%; on 5-HT1D receptor it was 52%; at D2 receptor (concentration-response curves), 54%. Besides, the activity at 10 µM is 55% on M2 receptor (panel screen, 10 μM, read-out: agonist activity, % of control) and 70% at H1 receptor. Besides, the agonist type entry on hTAAR1 (TAAR1) is “full agonist”. Also, on hTAAR1 (TAAR1, G protein recruitment assay, read-out: pEC50 (converted)), the EC50 is 0.0316 µM. The “fold more potent than Ulotaront” value on hTAAR1 (TAAR1 G protein recruitment) was above 25 fold. The “fold more potent than the reference agonist β-PEA” value at hTAAR1 (TAAR1 G protein recruitment) is ~ 10 fold. Besides, the “agonism at the α2A receptor” value at α2A receptor is reported as “agonism”. Besides, the “activation of 5-HT1A receptor” value at 5-HT1A receptor was “did not observe a considerable activation”. Also, on 5-HT1D receptor (panel screen), the “agonism at the 5-HT1D receptor” value is “agonism”. Besides, the “agonism at the D2 receptor” value on D2 receptor (panel screen) is listed as “agonism”.

On to `CN1CC2c3ccccc3Oc3ccc(Cl)cc3C2C1` (centres unmarked) [asenapine], for which the TAAR1 agonism result with TAAR1 is listed as “potent TAAR1 agonist”.

`Cc1nc2n(c(=O)c1CCN1CCC(c3noc4cc(F)ccc34)CC1)CCCC2` [risperidone, reference compound]: the “effect on PPI” value is recorded as “increased PPI” in the test with WT and TAAR1-KO mice [1] (TAAR1-KO mice); “general augmentation in PPI compared to the vehicle control” in the test on WT and TAAR1-KO mice [1] (WT mice). In addition, the effect on locomotion result in the test on WT and TAAR1-KO mice [2] (TAAR1-KO mice) is on record as “significant reduction in locomotion”. Besides, the “effect on MK-801–induced hyperlocomotion” value in the test on WT and TAAR1-KO mice [2] (WT mice, MK-801 0.35 mg/kg) is “significant decrease”. In addition, the “effect on baseline locomotion” value in the test with WT and TAAR1-KO mice [2] (WT mice, versus vehicle) was “notable reduction”.
